“Also recorded” adds a separate entry of the source.
Tests used:
pS897-EphA2 = assay: Immunoblot with polyclonal anti-pS897-EphA2, U373 cells; type: cell-based, human; conditions: for serum-induced pS897-EphA2 under FGFR inhibition: U373 cells pretreated with 10 μM SU5402 or 100 nM BU for 30 min, 10% FBS 10 min; for induction of pS897-EphA2: serum-starved U373 cells, 10 ng/ml growth factor, 10 min
Procedure: For stationary cells, sub-confluent cells were stimulated with 1 μg/ml ephrinA1-Fc for different times. To study the signaling events in migrating cells, the monolayer of freshly confluent cells was wounded by repeated scratch-wounding using a multichannel pipette. By doing so, the cells on the wound edges were induced to migrate. Four hours after wounding cells were stimulated with 1 μg/ml ephrinA1-Fc for different times. To look at the serum-induced signaling, cells were starved in serum-free medium overnight before stimulation or wounding. Both stationary and wounded cells were stimulated with 10% FBS in the presence of 1 μg/ml Fc or ephrinA1-Fc. Immunoprecipitation and immunoblot were performed as described previously (Nat. Cell Biol. 2, 62-69).

U373 cells = assay: Boyden chamber chemotactic cell migration assay; type: cell-based, human; conditions: 10 ng/ml growth factor or 10 μM LPA
Procedure: The chemotactic cell migration was carried out as described previously (J. Cell Biol. 162, 1281-1292). Briefly, both sides of the filter were coated with 10 μg/ml rat tail collagen type I at 4° C. overnight. 1×10^5 cells in serum-free medium containing 0.1% BSA were plated in the top of insert. EphrinA1-Fc or Fc was added to a final concentration of 1 μg/ml to the lower chamber together 5% FBS or various growth factors. Cells were allowed to migrate for 4 hours and then fixed with 4% paraformaldehyde. After staining with 0.5% crystal violet, cells that have passed through the filter and stayed on the undersides of inserts were counted.

Compound	serum-induced pS897-EphA2 under FGFR inhibition (pS897-EphA2)	serum-induced pS897-EphA2 (S897 phosphorylation) (pS897-EphA2; serum-starved U373 cells pretreated with 10 μM inhibitor (SH-5 30 min; LY294002 1 hour), FBS 10 min)	induction of pS897-EphA2 (pS897-EphA2)	chemoattractant activity (chemotactic cell migration) (U373 cells)
COc1cc(OC)cc(-c2cc3cnc(N)nc3nc2NC(=O)NC(C)(C)C)c1 [BU, 1-(2-Amino-6-(3,5-dimethoxyphenyl)pyrido[2,3-d]pyrimidin-7-yl)-3-tert-butyl urea, reference compound]	not sufficient for inhibiting serum-induced pS897-EphA2			
CCCCCCCCCCCCCCCCCCOC[C@H](COP(=O)(O)O[C@H]1[C@H](O)[C@@H](O)[C@H](O)C[C@H]1OC)OC [SH-5, reference compound]		suppressed S897 phosphorylation; also recorded: abolishes serum-induced pS897-EphA2		
Cc1c[nH]c(/C=C2\C(=O)Nc3ccccc32)c1CCC(=O)O [SU5402, reference compound]	not sufficient for inhibiting serum-induced pS897-EphA2			
EGF: growth factor implicated in development of human GBM (NSDSECPLSHDGYCLHDGVCMYIEALDKYACNCVVGYIGERCQYRDLKWWELR; UniProt P01133 971-1023, looked up)			capable of inducing pS897-EphA2	potent chemoattractants
HGF: growth factor implicated in development of human GBM			capable of inducing pS897-EphA2	potent chemoattractants
PDGF			capable of inducing pS897-EphA2	potent chemoattractants
bFGF: growth factor implicated in development of human GBM			capable of inducing pS897-EphA2	potent chemoattractants

Reference: US8603764B2, “EphA kinase cancer diagnostic” (Case Western Reserve University, priority 2009, dated 2013)
